Tests used:
[1] = target: Glutamate receptor ionotropic, NMDA 2A (Rattus norvegicus) (UniProt Q00959); experiment: Antagonist activity at GluN2A in rat primary pyramidal neurons assessed as inhibition of NMDA/glycine-induced current amplitude at 10 uM at holding potential of -70 mV by patch-clamp electrophysiology assay
[2] = target: Glutamate receptor ionotropic, NMDA 2A (Rattus norvegicus) (UniProt Q00959); experiment: Antagonist activity at GluN2A in CA1 region of Sprague-Dawley rat hippocampal slices assessed as inhibition of schaffer collateral input-stimulated field excitatory postsynaptic potential at 30 to 50 uM after 40 mins by electrophysiology assay
Oxytocin receptor [3] = target: T1, Oxytocin receptor (Mus musculus, UniProt P97926); experiment: Displacement of [Tyrosyl-2,6-3H]Oxytocin from recombinant mouse OTR expressed in CHO-K1 cells after 180 mins by liquid scintillation counting method; type: cell-based
T1 sequence (P97926 whole entry): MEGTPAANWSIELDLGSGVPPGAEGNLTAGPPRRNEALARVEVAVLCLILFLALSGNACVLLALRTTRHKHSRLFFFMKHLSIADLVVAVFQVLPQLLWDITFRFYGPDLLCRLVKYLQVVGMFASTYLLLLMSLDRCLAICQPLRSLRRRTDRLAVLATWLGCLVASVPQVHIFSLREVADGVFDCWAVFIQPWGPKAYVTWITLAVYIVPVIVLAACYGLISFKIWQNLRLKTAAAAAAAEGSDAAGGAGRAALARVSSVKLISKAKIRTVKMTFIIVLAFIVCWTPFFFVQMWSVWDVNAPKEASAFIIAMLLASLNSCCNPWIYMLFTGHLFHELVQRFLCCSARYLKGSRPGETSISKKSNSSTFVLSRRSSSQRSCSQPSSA

Oxytocin receptor [4] = target: T1, Oxytocin receptor; experiment: Agonist activity at recombinant mouse OTR expressed in CHO-K1 cells assessed as induction of Ca2+ mobilization after overnight incubation by FLIPR assay; type: functional, cell-based

Sequence of Glutamate receptor ionotropic, NMDA 2A (Rattus norvegicus) (Q00959 23-1464 limits assumed): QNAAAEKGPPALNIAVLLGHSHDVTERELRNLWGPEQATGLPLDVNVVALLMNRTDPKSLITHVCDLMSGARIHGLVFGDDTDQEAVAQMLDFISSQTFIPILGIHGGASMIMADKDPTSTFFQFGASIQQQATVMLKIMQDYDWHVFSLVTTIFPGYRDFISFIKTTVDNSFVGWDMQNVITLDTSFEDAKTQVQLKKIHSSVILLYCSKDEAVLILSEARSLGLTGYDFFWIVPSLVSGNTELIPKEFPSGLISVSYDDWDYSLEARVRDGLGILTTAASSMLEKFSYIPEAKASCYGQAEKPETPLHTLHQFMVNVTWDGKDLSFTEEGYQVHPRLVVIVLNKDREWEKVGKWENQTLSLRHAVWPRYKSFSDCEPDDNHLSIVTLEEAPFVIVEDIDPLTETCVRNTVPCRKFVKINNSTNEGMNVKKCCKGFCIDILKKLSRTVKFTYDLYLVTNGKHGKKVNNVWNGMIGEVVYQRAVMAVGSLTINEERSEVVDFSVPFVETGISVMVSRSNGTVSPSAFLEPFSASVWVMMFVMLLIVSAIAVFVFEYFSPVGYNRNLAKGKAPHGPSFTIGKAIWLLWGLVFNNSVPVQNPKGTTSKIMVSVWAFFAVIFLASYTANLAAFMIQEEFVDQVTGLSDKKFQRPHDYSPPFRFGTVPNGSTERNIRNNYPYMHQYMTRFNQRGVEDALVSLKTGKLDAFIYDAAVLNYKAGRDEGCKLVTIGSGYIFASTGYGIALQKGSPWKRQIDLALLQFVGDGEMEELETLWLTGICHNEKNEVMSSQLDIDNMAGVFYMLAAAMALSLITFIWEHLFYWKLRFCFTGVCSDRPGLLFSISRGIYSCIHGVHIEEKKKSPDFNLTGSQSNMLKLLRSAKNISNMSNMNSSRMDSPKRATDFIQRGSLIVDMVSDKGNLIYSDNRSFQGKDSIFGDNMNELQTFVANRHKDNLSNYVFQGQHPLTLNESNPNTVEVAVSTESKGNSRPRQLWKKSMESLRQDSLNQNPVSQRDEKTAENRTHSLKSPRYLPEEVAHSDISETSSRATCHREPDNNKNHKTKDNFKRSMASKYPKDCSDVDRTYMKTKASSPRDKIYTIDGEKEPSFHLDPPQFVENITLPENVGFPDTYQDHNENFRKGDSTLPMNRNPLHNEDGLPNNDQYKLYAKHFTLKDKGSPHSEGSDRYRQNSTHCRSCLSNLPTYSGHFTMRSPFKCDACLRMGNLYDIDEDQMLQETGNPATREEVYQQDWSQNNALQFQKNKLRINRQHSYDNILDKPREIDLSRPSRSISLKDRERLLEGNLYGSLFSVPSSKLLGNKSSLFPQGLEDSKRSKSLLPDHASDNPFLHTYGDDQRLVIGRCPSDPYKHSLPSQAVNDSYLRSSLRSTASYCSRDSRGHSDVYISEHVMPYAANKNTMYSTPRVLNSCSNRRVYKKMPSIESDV

| inhibition [1] [%] | inhibition [2] [%] | Ki (Oxytocin receptor [3]) [nM] | EC50 (Oxytocin receptor [4]) [nM] | SMILES |
| --- | --- | --- | --- | --- |
| 30 | 60 | – | – | Cc1ncc(CNC(=O)c2cnc(CNS(=O)(=O)c3ccc(F)c(Cl)c3)cn2)s1 |
| – | – | 51.6 | 29 | Cc1cc(C(=O)N2Cc3cnn(C)c3Nc3ccccc32)ccc1CNC(=O)N1CCN(Cc2cc(O)cc(O)c2)CC1 |
| 30 | 60 | – | – | Cc1ncc(CNC(=O)c2cnc(CNS(=O)(=O)c3ccc(F)c(F)c3)c(C)n2)s1 |
